Measured values: ChEMBL document CHEMBL1201861, “Genomics of Drug Sensitity in Cancer screening data, Wellcome Trust Sanger Institute”

The molecules below were run on COR-L88 (assay: cells). Details: Homo sapiens, COR-L88.
Type: functional, cell-based, Homo sapiens
Description: SANGER: Inhibition of human COR-L88 cell growth in a cell viability assay.

Compound	IC50 [µM]
OC[C@H](Cc1ccccc1)Nc1nc(Oc2ccc3c(c2)CCC3)nc2c1ncn2Cc1ccc(-c2ccccc2)cc1	> 10.2

These molecules were tested on DJM-1 (assay: cells). Details: Homo sapiens, DJM-1.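 Also: growth inhibition of human DJM-1 cells, read out by a cell viability assay.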
Type: functional, cell-based, Homo sapiens
Description: SANGER: Inhibition of human DJM-1 cell growth in a cell viability assay.

Compound	IC50 [µM]
OC[C@H](Cc1ccccc1)Nc1nc(Oc2ccc3c(c2)CCC3)nc2c1ncn2Cc1ccc(-c2ccccc2)cc1	> 10.2

These molecules were tested on DMS-114 (assay: cells). Details: Homo sapiens, DMS-114.
Type: functional, cell-based, Homo sapiens

Compound	IC50 [µM]
OC[C@H](Cc1ccccc1)Nc1nc(Oc2ccc3c(c2)CCC3)nc2c1ncn2Cc1ccc(-c2ccccc2)cc1	> 10.2

Each molecule was assayed on EW-11 (assay: cells). Details: Homo sapiens, EW-11.
Type: functional, cell-based, Homo sapiens
Description: SANGER: Inhibition of human EW-11 cell growth in a cell viability assay.

Compound	IC50 [µM]
OC[C@H](Cc1ccccc1)Nc1nc(Oc2ccc3c(c2)CCC3)nc2c1ncn2Cc1ccc(-c2ccccc2)cc1	> 10.2

The molecules below were run on EW-16 (assay: cells). Details: Homo sapiens, EW-16.
Type: functional, cell-based, Homo sapiens
Description: SANGER: Inhibition of human EW-16 cell growth in a cell viability assay.

Compound	IC50 [µM]
OC[C@H](Cc1ccccc1)Nc1nc(Oc2ccc3c(c2)CCC3)nc2c1ncn2Cc1ccc(-c2ccccc2)cc1	8.29

Each molecule was assayed on GB-1 (assay: cells). Details: Homo sapiens, GB-1.
Type: functional, cell-based, Homo sapiens
Description: SANGER: Inhibition of human GB-1 cell growth in a cell viability assay.

Compound	IC50 [µM]
OC[C@H](Cc1ccccc1)Nc1nc(Oc2ccc3c(c2)CCC3)nc2c1ncn2Cc1ccc(-c2ccccc2)cc1	5.25

These molecules were tested on GI-1 (assay: cells). Details: Homo sapiens, GI-1.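 Also: growth inhibition of human GI-1 cells, measured with a cell viability readout.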
Type: functional, cell-based, Homo sapiens
Description: SANGER: Inhibition of human GI-1 cell growth in a cell viability assay.

Compound	IC50 [µM]
OC[C@H](Cc1ccccc1)Nc1nc(Oc2ccc3c(c2)CCC3)nc2c1ncn2Cc1ccc(-c2ccccc2)cc1	7.9

What follows are molecules tested on GI-ME-N (assay: cells). Details: Homo sapiens, GI-ME-N.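 Also: growth inhibition of human GI-ME-N cells, read out with a cell viability assay.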
Type: functional, cell-based, Homo sapiens
Description: SANGER: Inhibition of human GI-ME-N cell growth in a cell viability assay.

Compound	IC50 [µM]
OC[C@H](Cc1ccccc1)Nc1nc(Oc2ccc3c(c2)CCC3)nc2c1ncn2Cc1ccc(-c2ccccc2)cc1	> 10.2

What follows are molecules tested on GOTO (assay: cells). Details: Homo sapiens, GOTO.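 Also: growth inhibition of GOTO cells, read out by a cell viability assay.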
Type: functional, cell-based, Homo sapiens
Description: SANGER: Inhibition of human GOTO cell growth in a cell viability assay.

Compound	IC50 [µM]
OC[C@H](Cc1ccccc1)Nc1nc(Oc2ccc3c(c2)CCC3)nc2c1ncn2Cc1ccc(-c2ccccc2)cc1	5.86

What follows are molecules tested on GR-ST (assay: cells). Details: Homo sapiens, GR-ST.
Type: functional, cell-based, Homo sapiens
Description: SANGER: Inhibition of human GR-ST cell growth in a cell viability assay.

Compound	IC50 [µM]
OC[C@H](Cc1ccccc1)Nc1nc(Oc2ccc3c(c2)CCC3)nc2c1ncn2Cc1ccc(-c2ccccc2)cc1	5.51

What follows are molecules tested on GT3TKB (assay: cells). Details: Homo sapiens, GT3TKB.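 Also: growth inhibition of the cell line, read out with a cell viability assay.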
Type: functional, cell-based, Homo sapiens
Description: SANGER: Inhibition of human GT3TKB cell growth in a cell viability assay.

Compound	IC50 [µM]
OC[C@H](Cc1ccccc1)Nc1nc(Oc2ccc3c(c2)CCC3)nc2c1ncn2Cc1ccc(-c2ccccc2)cc1	> 10.2

The molecules below were run on HL-60 (assay: cells). Details: Homo sapiens, HL-60.
Type: functional, cell-based, Homo sapiens
Description: SANGER: Inhibition of human HL-60 cell growth in a cell viability assay.

Compound	IC50 [µM]
OC[C@H](Cc1ccccc1)Nc1nc(Oc2ccc3c(c2)CCC3)nc2c1ncn2Cc1ccc(-c2ccccc2)cc1	> 10.2

Each molecule was assayed on HOP-62 (assay: cells). Details: Homo sapiens, HOP-62.
Type: functional, cell-based, Homo sapiens
Description: SANGER: Inhibition of human HOP-62 cell growth in a cell viability assay.

Compound	IC50 [µM]
OC[C@H](Cc1ccccc1)Nc1nc(Oc2ccc3c(c2)CCC3)nc2c1ncn2Cc1ccc(-c2ccccc2)cc1	3.45

Each molecule was assayed on KARPAS-45 (assay: cells). Details: Homo sapiens, KARPAS-45.
Type: functional, cell-based, Homo sapiens
Description: SANGER: Inhibition of human KARPAS-45 cell growth in a cell viability assay.

Compound	IC50 [µM]
OC[C@H](Cc1ccccc1)Nc1nc(Oc2ccc3c(c2)CCC3)nc2c1ncn2Cc1ccc(-c2ccccc2)cc1	> 10.2

What follows are molecules tested on KE-37 (assay: cells). Details: Homo sapiens, KE-37.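 Also: growth inhibition of KE-37 cells, read out with a cell viability assay.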
Type: functional, cell-based, Homo sapiens
Description: SANGER: Inhibition of human KE-37 cell growth in a cell viability assay.

Compound	IC50 [µM]
OC[C@H](Cc1ccccc1)Nc1nc(Oc2ccc3c(c2)CCC3)nc2c1ncn2Cc1ccc(-c2ccccc2)cc1	9.31

Each molecule was assayed on KGN (assay: cells). Details: Homo sapiens, KGN.
Type: functional, cell-based, Homo sapiens
Description: SANGER: Inhibition of human KGN cell growth in a cell viability assay.

Compound	IC50 [µM]
OC[C@H](Cc1ccccc1)Nc1nc(Oc2ccc3c(c2)CCC3)nc2c1ncn2Cc1ccc(-c2ccccc2)cc1	> 10.2

Each molecule was assayed on KLE (assay: cells). Details: Homo sapiens.
Type: functional, cell-based
Description: SANGER: Inhibition of human KLE cell growth in a cell viability assay.

Compound	IC50 [µM]
OC[C@H](Cc1ccccc1)Nc1nc(Oc2ccc3c(c2)CCC3)nc2c1ncn2Cc1ccc(-c2ccccc2)cc1	> 10.2

The molecules below were run on KS-1 (assay: cells). Details: Homo sapiens.
Type: functional, cell-based
Description: SANGER: Inhibition of human KS-1 cell growth in a cell viability assay.

Compound	IC50 [µM]
OC[C@H](Cc1ccccc1)Nc1nc(Oc2ccc3c(c2)CCC3)nc2c1ncn2Cc1ccc(-c2ccccc2)cc1	> 10.2

What follows are molecules tested on LAN-6 (assay: cells). Details: Homo sapiens, LAN-6.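 Also: growth inhibition of LAN-6 cells, determined with a cell viability assay.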
Type: functional, cell-based, Homo sapiens
Description: SANGER: Inhibition of human LAN-6 cell growth in a cell viability assay.

Compound	IC50 [µM]
OC[C@H](Cc1ccccc1)Nc1nc(Oc2ccc3c(c2)CCC3)nc2c1ncn2Cc1ccc(-c2ccccc2)cc1	> 10.2

These molecules were tested on LB771-HNC (assay: cells). Details: Homo sapiens.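 Also: growth inhibition of LB771-HNC human cells, read out with a cell viability assay.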
Type: functional, cell-based
Description: SANGER: Inhibition of human LB771-HNC cell growth in a cell viability assay.

Compound	IC50 [µM]
OC[C@H](Cc1ccccc1)Nc1nc(Oc2ccc3c(c2)CCC3)nc2c1ncn2Cc1ccc(-c2ccccc2)cc1	3.25

What follows are molecules tested on LS-1034 (assay: cells). Details: Homo sapiens, LS-1034.
Type: functional, cell-based, Homo sapiens
Description: SANGER: Inhibition of human LS-1034 cell growth in a cell viability assay.

Compound	IC50 [µM]
OC[C@H](Cc1ccccc1)Nc1nc(Oc2ccc3c(c2)CCC3)nc2c1ncn2Cc1ccc(-c2ccccc2)cc1	> 10.2

These molecules were tested on Lu-65 (assay: cells). Details: Homo sapiens, Lu-65.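 Also: growth inhibition of Lu-65 cancer cells, read out by a cell viability assay.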
Type: functional, cell-based, Homo sapiens
Description: SANGER: Inhibition of human LU-65 cell growth in a cell viability assay.

Compound	IC50 [µM]
OC[C@H](Cc1ccccc1)Nc1nc(Oc2ccc3c(c2)CCC3)nc2c1ncn2Cc1ccc(-c2ccccc2)cc1	> 10.2

The molecules below were run on MC116 (assay: cells). Details: Homo sapiens, MC116.
Type: functional, cell-based, Homo sapiens
Description: SANGER: Inhibition of human MC116 cell growth in a cell viability assay.

Compound	IC50 [µM]
OC[C@H](Cc1ccccc1)Nc1nc(Oc2ccc3c(c2)CCC3)nc2c1ncn2Cc1ccc(-c2ccccc2)cc1	> 10.2

These molecules were tested on MMAC-SF (assay: cells). Details: Homo sapiens.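 Also: growth inhibition of human MMAC-SF cells, read out with a cell viability assay.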
Type: functional, cell-based
Description: SANGER: Inhibition of human MMAC-SF cell growth in a cell viability assay.

Compound	IC50 [µM]
OC[C@H](Cc1ccccc1)Nc1nc(Oc2ccc3c(c2)CCC3)nc2c1ncn2Cc1ccc(-c2ccccc2)cc1	> 10.2

These molecules were tested on MOLT-16 (assay: cells). Details: Homo sapiens, MOLT-16.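 Also: growth inhibition of human MOLT-16 cells, read out with a cell viability assay.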
Type: functional, cell-based, Homo sapiens
Description: SANGER: Inhibition of human MOLT-16 cell growth in a cell viability assay.

Compound	IC50 [µM]
OC[C@H](Cc1ccccc1)Nc1nc(Oc2ccc3c(c2)CCC3)nc2c1ncn2Cc1ccc(-c2ccccc2)cc1	> 10.2

These molecules were tested on MPP-89 (assay: cells). Details: Homo sapiens, MPP-89.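 Also: growth inhibition of human MPP-89 cells, read out with a cell viability assay.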
Type: functional, cell-based, Homo sapiens
Description: SANGER: Inhibition of human MPP-89 cell growth in a cell viability assay.

Compound	IC50 [µM]
OC[C@H](Cc1ccccc1)Nc1nc(Oc2ccc3c(c2)CCC3)nc2c1ncn2Cc1ccc(-c2ccccc2)cc1	> 10.2

Each molecule was assayed on MZ2-MEL (assay: cells). Details: Homo sapiens, MZ2-MEL.
Type: functional, cell-based, Homo sapiens
Description: SANGER: Inhibition of human MZ2-MEL cell growth in a cell viability assay.

Compound	IC50 [µM]
OC[C@H](Cc1ccccc1)Nc1nc(Oc2ccc3c(c2)CCC3)nc2c1ncn2Cc1ccc(-c2ccccc2)cc1	4.42

These molecules were tested on NB5 (assay: cells). Details: Homo sapiens, NB5.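 Also: growth inhibition of NB5 cells, read out as cell viability.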
Type: functional, cell-based, Homo sapiens
Description: SANGER: Inhibition of human NB5 cell growth in a cell viability assay.

Compound	IC50 [µM]
OC[C@H](Cc1ccccc1)Nc1nc(Oc2ccc3c(c2)CCC3)nc2c1ncn2Cc1ccc(-c2ccccc2)cc1	> 10.2

What follows are molecules tested on NB6 (assay: cells). Details: Homo sapiens, NB6.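 Also: growth inhibition of NB6 cells, read out by a cell viability assay.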
Type: functional, cell-based, Homo sapiens
Description: SANGER: Inhibition of human NB6 cell growth in a cell viability assay.

Compound	IC50 [µM]
OC[C@H](Cc1ccccc1)Nc1nc(Oc2ccc3c(c2)CCC3)nc2c1ncn2Cc1ccc(-c2ccccc2)cc1	> 10.2

What follows are molecules tested on NCI-H1304 (assay: cells). Details: Homo sapiens, NCI-H1304.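 Also: growth inhibition of the cancer cell line, measured in a cell viability assay.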
Type: functional, cell-based, Homo sapiens
Description: SANGER: Inhibition of human NCI-H1304 cell growth in a cell viability assay.

Compound	IC50 [µM]
OC[C@H](Cc1ccccc1)Nc1nc(Oc2ccc3c(c2)CCC3)nc2c1ncn2Cc1ccc(-c2ccccc2)cc1	> 10.2

These molecules were tested on NCI-H1395 (assay: cells). Details: Homo sapiens, NCI-H1395.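 Also: cell viability assay read-out quantifying reduced proliferation of human NCI-H1395 cells.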
Type: functional, cell-based, Homo sapiens
Description: SANGER: Inhibition of human NCI-H1395 cell growth in a cell viability assay.

Compound	IC50 [µM]
OC[C@H](Cc1ccccc1)Nc1nc(Oc2ccc3c(c2)CCC3)nc2c1ncn2Cc1ccc(-c2ccccc2)cc1	> 10.2

The molecules below were run on NCI-H2126 (assay: cells). Details: Homo sapiens, NCI-H2126.
Type: functional, cell-based, Homo sapiens
Description: SANGER: Inhibition of human NCI-H2126 cell growth in a cell viability assay.

Compound	IC50 [µM]
OC[C@H](Cc1ccccc1)Nc1nc(Oc2ccc3c(c2)CCC3)nc2c1ncn2Cc1ccc(-c2ccccc2)cc1	> 10.2

The molecules below were run on NCI-H747 (assay: cells). Details: Homo sapiens, NCI-H747.
Type: functional, cell-based, Homo sapiens
Description: SANGER: Inhibition of human NCI-H747 cell growth in a cell viability assay.

Compound	IC50 [µM]
OC[C@H](Cc1ccccc1)Nc1nc(Oc2ccc3c(c2)CCC3)nc2c1ncn2Cc1ccc(-c2ccccc2)cc1	> 10.2

What follows are molecules tested on NKM-1 (assay: cells). Details: Homo sapiens, NKM-1.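 Also: growth inhibition of NKM-1 cells, read out with a cell viability assay.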
Type: functional, cell-based, Homo sapiens
Description: SANGER: Inhibition of human NKM-1 cell growth in a cell viability assay.

Compound	IC50 [µM]
OC[C@H](Cc1ccccc1)Nc1nc(Oc2ccc3c(c2)CCC3)nc2c1ncn2Cc1ccc(-c2ccccc2)cc1	> 10.2

The molecules below were run on OCUB-M (assay: cells). Details: Homo sapiens.
Type: functional, cell-based
Description: SANGER: Inhibition of human OCUB-M cell growth in a cell viability assay.

Compound	IC50 [µM]
OC[C@H](Cc1ccccc1)Nc1nc(Oc2ccc3c(c2)CCC3)nc2c1ncn2Cc1ccc(-c2ccccc2)cc1	3.68

The molecules below were run on OVCAR-4 (assay: cells). Details: Homo sapiens, OVCAR-4.
Type: functional, cell-based, Homo sapiens
Description: SANGER: Inhibition of human OVCAR-4 cell growth in a cell viability assay.

Compound	IC50 [µM]
OC[C@H](Cc1ccccc1)Nc1nc(Oc2ccc3c(c2)CCC3)nc2c1ncn2Cc1ccc(-c2ccccc2)cc1	8.19

Each molecule was assayed on RCC10RGB (assay: cells). Details: Homo sapiens, RCC10RGB.
Type: functional, cell-based, Homo sapiens
Description: SANGER: Inhibition of human RCC10RGB cell growth in a cell viability assay.

Compound	IC50 [µM]
OC[C@H](Cc1ccccc1)Nc1nc(Oc2ccc3c(c2)CCC3)nc2c1ncn2Cc1ccc(-c2ccccc2)cc1	> 10.2

Each molecule was assayed on RXF 393 (assay: cells). Details: Homo sapiens, RXF 393.
Type: functional, cell-based, Homo sapiens
Description: SANGER: Inhibition of human RXF393 cell growth in a cell viability assay.

Compound	IC50 [µM]
OC[C@H](Cc1ccccc1)Nc1nc(Oc2ccc3c(c2)CCC3)nc2c1ncn2Cc1ccc(-c2ccccc2)cc1	> 10.2

These molecules were tested on SF-126 (assay: cells). Details: Homo sapiens, SF-126.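 Also: growth inhibition of human SF126 cells, read out with a cell viability assay.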
Type: functional, cell-based, Homo sapiens
Description: SANGER: Inhibition of human SF126 cell growth in a cell viability assay.

Compound	IC50 [µM]
OC[C@H](Cc1ccccc1)Nc1nc(Oc2ccc3c(c2)CCC3)nc2c1ncn2Cc1ccc(-c2ccccc2)cc1	> 10.2

The molecules below were run on SH-4 (assay: cells). Details: Homo sapiens.
Type: functional, cell-based
Description: SANGER: Inhibition of human SH-4 cell growth in a cell viability assay.

Compound	IC50 [µM]
OC[C@H](Cc1ccccc1)Nc1nc(Oc2ccc3c(c2)CCC3)nc2c1ncn2Cc1ccc(-c2ccccc2)cc1	> 10.2

These molecules were tested on SK-MEL-1 (assay: cells). Details: Homo sapiens, SK-MEL-1.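 Also: growth inhibition of human SK-MEL-1 cells, read out by a cell viability assay.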
Type: functional, cell-based, Homo sapiens
Description: SANGER: Inhibition of human SK-MEL-1 cell growth in a cell viability assay.

Compound	IC50 [µM]
OC[C@H](Cc1ccccc1)Nc1nc(Oc2ccc3c(c2)CCC3)nc2c1ncn2Cc1ccc(-c2ccccc2)cc1	> 10.2

The molecules below were run on SNU-C2B (assay: cells). Details: Homo sapiens.
Type: functional, cell-based
Description: SANGER: Inhibition of human SNU-C2B cell growth in a cell viability assay.

Compound	IC50 [µM]
OC[C@H](Cc1ccccc1)Nc1nc(Oc2ccc3c(c2)CCC3)nc2c1ncn2Cc1ccc(-c2ccccc2)cc1	> 10.2

Each molecule was assayed on ALL-PO (assay: cells). Details: Homo sapiens, ALL-PO.
Type: functional, cell-based, Homo sapiens
Description: SANGER: Inhibition of human ALL-PO cell growth in a cell viability assay.

Compound	IC50 [µM]
OC[C@H](Cc1ccccc1)Nc1nc(Oc2ccc3c(c2)CCC3)nc2c1ncn2Cc1ccc(-c2ccccc2)cc1	> 10.2

Each molecule was assayed on BB49-HNC (assay: cells). Details: Homo sapiens, BB49-HNC.
Type: functional, cell-based, Homo sapiens
Description: SANGER: Inhibition of human BB49-HNC cell growth in a cell viability assay.

Compound	IC50 [µM]
OC[C@H](Cc1ccccc1)Nc1nc(Oc2ccc3c(c2)CCC3)nc2c1ncn2Cc1ccc(-c2ccccc2)cc1	> 10.2

These molecules were tested on BE-13 (assay: cells). Details: Homo sapiens, BE-13.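 Also: growth inhibition of human BE-13 cells, measured with a cell viability assay.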
Type: functional, cell-based, Homo sapiens
Description: SANGER: Inhibition of human BE-13 cell growth in a cell viability assay.

Compound	IC50 [µM]
OC[C@H](Cc1ccccc1)Nc1nc(Oc2ccc3c(c2)CCC3)nc2c1ncn2Cc1ccc(-c2ccccc2)cc1	> 10.2

These molecules were tested on C2BBe1 (assay: cells). Details: Homo sapiens, C2BBe1.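 Also: growth inhibition of C2BBe1 cells, read out through a viability assay.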
Type: functional, cell-based, Homo sapiens
Description: SANGER: Inhibition of human C2BBe1 cell growth in a cell viability assay.

Compound	IC50 [µM]
OC[C@H](Cc1ccccc1)Nc1nc(Oc2ccc3c(c2)CCC3)nc2c1ncn2Cc1ccc(-c2ccccc2)cc1	> 10.2

The molecules below were run on TE-10 (assay: cells). Details: Homo sapiens, TE-10.
Type: functional, cell-based, Homo sapiens
Description: SANGER: Inhibition of human TE-10 cell growth in a cell viability assay.

Compound	IC50 [µM]
OC[C@H](Cc1ccccc1)Nc1nc(Oc2ccc3c(c2)CCC3)nc2c1ncn2Cc1ccc(-c2ccccc2)cc1	7.51

What follows are molecules tested on TGBC24TKB (assay: cells). Details: Homo sapiens.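 Also: growth inhibition of human TGBC24TKB cells, read out with a cell viability assay.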
Type: functional, cell-based
Description: SANGER: Inhibition of human TGBC24TKB cell growth in a cell viability assay.

Compound	IC50 [µM]
OC[C@H](Cc1ccccc1)Nc1nc(Oc2ccc3c(c2)CCC3)nc2c1ncn2Cc1ccc(-c2ccccc2)cc1	> 10.2

The molecules below were run on VA-ES-BJ (assay: cells). Details: Homo sapiens, VA-ES-BJ.
Type: functional, cell-based, Homo sapiens
Description: SANGER: Inhibition of human VA-ES-BJ cell growth in a cell viability assay.

Compound	IC50 [µM]
OC[C@H](Cc1ccccc1)Nc1nc(Oc2ccc3c(c2)CCC3)nc2c1ncn2Cc1ccc(-c2ccccc2)cc1	2.57

The molecules below were run on no-11 (assay: cells). Details: Homo sapiens.
Type: functional, cell-based, Homo sapiens
Description: SANGER: Inhibition of human no-11 cell growth in a cell viability assay.

Compound	IC50 [µM]
OC[C@H](Cc1ccccc1)Nc1nc(Oc2ccc3c(c2)CCC3)nc2c1ncn2Cc1ccc(-c2ccccc2)cc1	> 10.2

The molecules below were run on COLO-684 (assay: cells). Details: Homo sapiens, COLO-684.
Type: functional, cell-based, Homo sapiens
Description: SANGER: Inhibition of human COLO-684 cell growth in a cell viability assay.

Compound	IC50 [µM]
OC[C@H](Cc1ccccc1)Nc1nc(Oc2ccc3c(c2)CCC3)nc2c1ncn2Cc1ccc(-c2ccccc2)cc1	> 10.2
